Source: patent US8063079B2, “Cyclopropyl compounds” (Eli Lilly and Company, priority 2008, dated 2011)
“And” between values parts separate entries of the source, which are not always exact repeats. Equal entries are not always repeated.

What was measured:
[1] = test system: Rat insulinoma INS-1E cells; test: Glycolysis Assay; format: cell-based; settings: INS1-E cells, 8 mM glucose, n=4, read-out: mean EC50 of stimulation of glucose metabolism
Method: Rat insulinoma INS-1E cells are maintained at 37° C., 5% CO2, 95% humidity in 1640 medium supplemented with 11 mM glucose, 5% Fetal Bovine Serum, 50 μM 2-Mercaptoethanol, 1 mM pyruvate, 10 mM HEPES and antibiotics. Prior to assay, cells are trypsinized, pelleted by centrifugation and seeded into 96-well tissue culture assay plates at the density of 30,000 cells/well. Cells are allowed to attach and incubated for 48 hours at 37° C., 5% CO2. On the assay day, cells are washed with and incubated in 200 μL Earle's Balanced Salt Solution (EBSS) buffer supplemented with 0.1% Bovine Serum Albumin (BSA). After 30 minutes incubation, the buffer is removed and 100 μL EBSS buffer containing 0.1% BSA, 8 mM glucose and the compound is added to cells. Immediately after, 20 μL of CellTiter 96® AQueous One Solution Reagent is added to cells and cells are incubated at 37° C. for an additional hour. At the end of incubation absorbance at 490 nm is read. Absorbance values are used for EC50 calculations.

[2] = test system: plasma glucose in male Wistar rats; test: Oral Glucose Tolerance Test (OGTT); format: in vivo, rat
Method: Male Wistar rats at a weight of 225-250 g, are kept on regular diet and with normal light cycle and conditions. For the study, rats are fasted overnight before their exact weights are measured, and are randomized into groups of similar weights (n=4 per group). The compound is suspended in a 1:1 mixture of solutol/ethanol in a bath sonicator (10% of total volume). The obtained suspension is then diluted with 9 volumes of 10% aqueous solutol solution, and the compound is dosed orally at 1, 3, 6, 10, 20, and 30 mg/kg orally. Rats are given a 2 g/kg oral glucose bolus 2 hours after compound administration. Blood is collected via tail bleed at 0, 15, 30, 60, 90 and 120 minutes post glucose administration. Collected blood is placed into ethylenediaminetetraacetic acid (EDTA) tubes at volume of 400 μL per sample, and the samples are kept on ice. Plasma is isolated and stored at −20° C. until samples are analyzed for glucose and compound exposure. Area under the plasma glucose curve (glucose AUC) is calculated for each group and the percentage decrease in the glucose AUC versus the control group is used as a measure of efficacy of the compound to decrease plasma glucose.

[3] = Blood Brain Barrier Permeability; format: in vivo, mouse; settings: male CF-1 mice, IV bolus 2.17 μmole/kg, five minutes post dose
Method: A stock compound solution is prepared in dimethylsulfoxide at 10 mM. A dose solution is then prepared at 1 mM by diluting 100 μL of the stock with 900 μL of propylene glycol. The dose is administered as an IV bolus (2.2 mL/kg) via the tail vein into six male CF-1 mice (approximately 23 g) for a target dose of 2.17 μmole/kg. Mice are euthanized using both CO2 and cervical dislocation. Three mice are sacrificed 5 minutes post dose and three 60 minutes post dose. Blood is collected from each animal via cardiac puncture, and plasma is prepared using sodium EDTA, transferred into polypropylene sample tubes and immediately frozen using dry ice. […]
MS/MS is effected using a Sciex API 4000 triple quadrupole mass spectrometer equipped with a turbo ion spray source. […] Column effluent is diverted to waste from 0-2.8 minutes and then directed into the mass spectrometer from 2.8-4.0 minutes MS/MS transitions monitored are 560/84. Quantitation of compound in test samples is achieved by comparing peak area values to a quadratic equation weighted 1/x^2 derived from the nominal concentrations of the calibration standards and their respective peak areas. Upper and Lower Limits of Quantitation are determined by the back calculated recoveries of calibration standards that exceeded +/−20% of theory. […]

human islet GK isoform = target: T1, human islet GK isoform (Homo sapiens, UniProt P35557); test: Glucokinase Assay; format: biochemical
T1 construct: (His)6; made in house; host or cells: E. coli
T1 sequence (P35557 1-465): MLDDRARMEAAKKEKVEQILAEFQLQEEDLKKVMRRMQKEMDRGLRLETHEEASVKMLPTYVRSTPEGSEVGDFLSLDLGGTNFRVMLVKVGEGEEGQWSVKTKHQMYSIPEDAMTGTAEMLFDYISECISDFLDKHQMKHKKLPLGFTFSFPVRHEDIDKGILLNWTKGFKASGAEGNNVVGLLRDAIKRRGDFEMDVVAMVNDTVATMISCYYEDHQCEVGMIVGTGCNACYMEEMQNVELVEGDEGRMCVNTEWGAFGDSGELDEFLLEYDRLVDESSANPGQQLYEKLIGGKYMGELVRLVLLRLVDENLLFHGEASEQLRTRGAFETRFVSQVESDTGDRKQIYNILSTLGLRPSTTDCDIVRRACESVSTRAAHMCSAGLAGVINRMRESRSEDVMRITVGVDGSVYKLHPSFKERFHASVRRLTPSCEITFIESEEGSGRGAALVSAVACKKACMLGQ
Method: The human islet GK isoform is expressed in E. coli as (His)6-tagged fusion protein and purified with metal chelate affinity chromatography, see e.g. Tiedge et al., Biochem. Biophys. Acta 1337, 175-190, 1997. After purification the enzyme is stored in aliquots at concentration 0.8 mg/ml in 25 mM sodium phosphate, 150 mM sodium chloride, 100 mM imidazole, 1 mM dithiothreitol, 50% glycerol at −80° C. The assay is performed in flat bottom 96-well plates in a final incubation volume of 100 μL. The incubation mixture consists of 25 mM 4-(2-hydroxyethyl)-1-piperazineethanesulfonic acid (HEPES) (pH7.4), 50 mM potassiumchloride, 2.5 mM magnesiumchloride, 2 mM dithiothreitol, 4 U/ml glucose-6-phosphate dehydrogenase from Leuconostoc mesenteroides, 5 mM ATP, 1 mM NAD and a set concentration of glucose. Test compounds are dissolved in dimethylsulfoxide and then added to the reaction mixture giving the final dimethylsulfoxide concentration of 10%. The reaction is initiated by addition of 20 μL GK and run for 20 min at 37° C. The amount of formed NADH is measured as an increase in absorbance at 340 nm using a microplate reader. Absorbance values are used for EC50 calculations.

EC50 [1]: 579 ± 139 nM
mean total brain level [3]: 0.539 nmol/g
Kp at 5 min ([3]; mouse, brain/plasma, read-out: mean brain/plasma ratio): 0.17
EC50 (human islet GK isoform; 10 mM glucose, n=5, read-out: EC50 of GK activation): 42 ± 42 nM
Compound: O=C(Nc1ncc(SCCN2CCCC2)s1)[C@]1(c2ccc(S(=O)(=O)C3CC3)cc2)C[C@H]1C1CCCCC1 [Example 1, (1R,2S)-2-Cyclohexyl-1-(4-cyclopropanesulfonyl-phenyl)-cyclopropanecarboxylic acid [5-(2-pyrrolidin-1-yl-ethylsulfanyl)-thiazol-2-yl]-amide]
maximal lowering of glucose AUC versus the untreated control group ([2]; 30 mg/kg oral, 2 g/kg oral glucose bolus 2 hours after compound): 42%
average compound concentration in plasma at which a 20% glucose AUC decrease occurs ([2]; interpolation of the data): 99 ng/ml and 179 nM
compound dose corresponding to a 20% glucose AUC decrease ([2]; interpolation of the data, oral): 6.9 mg/kg
effect on plasma glucose ([2]; oral 1-30 mg/kg, fasted and postprandial glucose levels): decreases plasma glucose in a dose-dependent manner
enzyme activity at lower glucose concentrations (human islet GK isoform; lower glucose concentrations): increased the enzyme activity in a concentration dependent manner
